Results reported in patent US10231954B2, “Neurodegenerative therapies” (LYTIX BIOPHARMA AS, priority 2014, dated 2019).

Columns and labels:
Format in all cases: biochemical
[1] = target: MKK1 (Homo sapiens, UniProt Q02750); assay: Kinase profiling MKK1; settings: for residual kinase activity, MKK1: 100 micromolar inhibitor concentration, 100 is no change
Excerpt: (§1) Any value less that 25 is considered to be highly significant inhibition.

[2] = target: p38a MAPK (Homo sapiens, UniProt Q16539); assay: Kinase profiling p38a MAPK; settings: for residual kinase activity, p38a MAPK: 100 micromolar inhibitor concentration, 100 is no change
p38a MAPK, sequence (Q16539 whole entry): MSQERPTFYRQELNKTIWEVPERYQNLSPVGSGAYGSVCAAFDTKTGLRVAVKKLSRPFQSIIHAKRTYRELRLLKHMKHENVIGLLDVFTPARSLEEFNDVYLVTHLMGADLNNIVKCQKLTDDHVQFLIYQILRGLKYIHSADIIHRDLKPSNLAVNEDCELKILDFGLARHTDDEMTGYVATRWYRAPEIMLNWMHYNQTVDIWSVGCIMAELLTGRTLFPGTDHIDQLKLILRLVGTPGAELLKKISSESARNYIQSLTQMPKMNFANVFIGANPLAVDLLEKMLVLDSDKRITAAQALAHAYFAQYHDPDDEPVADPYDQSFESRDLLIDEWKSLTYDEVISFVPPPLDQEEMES
Excerpt: as §1

[3] = target: T1, PDK1 (Homo sapiens, UniProt O15530); assay: Kinase profiling PDK1; settings: for residual kinase activity, PDK1: 100 micromolar inhibitor concentration, 100 is no change
T1 sequence (O15530 1-556): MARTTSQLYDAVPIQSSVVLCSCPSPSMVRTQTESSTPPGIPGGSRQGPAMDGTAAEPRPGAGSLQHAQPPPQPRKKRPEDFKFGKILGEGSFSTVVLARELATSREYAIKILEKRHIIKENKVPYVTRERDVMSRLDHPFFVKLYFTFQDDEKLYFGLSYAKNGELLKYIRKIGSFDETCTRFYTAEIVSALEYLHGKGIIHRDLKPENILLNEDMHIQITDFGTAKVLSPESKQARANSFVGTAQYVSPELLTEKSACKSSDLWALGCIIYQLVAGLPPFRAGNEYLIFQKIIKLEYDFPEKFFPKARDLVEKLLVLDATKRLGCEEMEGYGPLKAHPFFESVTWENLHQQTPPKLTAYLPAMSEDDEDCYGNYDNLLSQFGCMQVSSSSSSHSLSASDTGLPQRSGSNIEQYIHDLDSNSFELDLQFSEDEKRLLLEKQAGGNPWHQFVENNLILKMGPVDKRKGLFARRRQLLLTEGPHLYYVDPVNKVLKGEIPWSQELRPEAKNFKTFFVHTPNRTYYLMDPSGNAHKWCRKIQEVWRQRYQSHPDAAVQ
Excerpt: as §1

[4] = target: PKBa (Homo sapiens, UniProt P31749); assay: Kinase profiling PKBa; settings: for residual kinase activity, PKBa: 100 micromolar inhibitor concentration, 100 is no change
Excerpt: as §1

[5] = target: PKA (Homo sapiens, UniProt P17612); assay: Kinase profiling PKA; settings: for residual kinase activity, PKA: 100 micromolar inhibitor concentration, 100 is no change
Excerpt: as §1

[6] = target: PKCa (Homo sapiens, UniProt P17252); assay: Kinase profiling PKCa; settings: for residual kinase activity, PKCa: 100 micromolar inhibitor concentration, 100 is no change
Excerpt: as §1

[7] = target: MSK1 (Homo sapiens, UniProt O75582); assay: Kinase profiling MSK1; settings: for residual kinase activity, MSK1: 100 micromolar inhibitor concentration, 100 is no change
Excerpt: as §1

[8] = target: CAMKKb (Homo sapiens, UniProt Q96RR4); assay: Kinase profiling CAMKKb; settings: for residual kinase activity, CAMKKb: 100 micromolar inhibitor concentration, 100 is no change
Excerpt: as §1

[9] = target: CHK2 (Homo sapiens, UniProt O96017); assay: Kinase profiling CHK2; settings: for residual kinase activity, CHK2: 100 micromolar inhibitor concentration, 100 is no change
Excerpt: as §1

[10] = target: PLK1 (Homo sapiens, UniProt P53350); assay: Kinase profiling PLK1; settings: for residual kinase activity, PLK1: 100 micromolar inhibitor concentration, 100 is no change
PLK1, sequence (P53350 whole entry, species assumed): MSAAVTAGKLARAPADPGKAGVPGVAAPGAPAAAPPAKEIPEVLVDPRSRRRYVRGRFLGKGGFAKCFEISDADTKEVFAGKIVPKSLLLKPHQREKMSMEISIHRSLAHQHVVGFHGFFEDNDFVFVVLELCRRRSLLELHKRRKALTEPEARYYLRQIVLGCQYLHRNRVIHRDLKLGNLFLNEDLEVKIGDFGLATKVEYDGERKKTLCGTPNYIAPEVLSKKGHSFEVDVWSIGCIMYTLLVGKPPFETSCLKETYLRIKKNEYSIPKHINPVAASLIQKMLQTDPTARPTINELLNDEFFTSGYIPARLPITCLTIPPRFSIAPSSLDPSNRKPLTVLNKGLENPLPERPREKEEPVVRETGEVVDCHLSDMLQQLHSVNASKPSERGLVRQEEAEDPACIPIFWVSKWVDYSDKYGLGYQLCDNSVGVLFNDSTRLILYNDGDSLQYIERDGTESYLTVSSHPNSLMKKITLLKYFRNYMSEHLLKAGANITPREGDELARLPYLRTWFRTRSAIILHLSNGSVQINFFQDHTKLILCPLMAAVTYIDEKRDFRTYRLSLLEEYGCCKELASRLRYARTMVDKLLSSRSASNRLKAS
Excerpt: as §1

[11] = target: MARK3 (Homo sapiens, UniProt P27448); assay: Kinase profiling MARK3; settings: for residual kinase activity, MARK3: 100 micromolar inhibitor concentration, 100 is no change
Excerpt: as §1

[12] = target: DYRK1A (Homo sapiens, UniProt Q13627); assay: DYRK 1A assay (kinase profiling); settings: for residual kinase activity, DYRK1A: 100 micromolar inhibitor concentration, 100 is no change
Description: Assays are stopped by addition of 5 μl of 0.5 M (3%) orthophosphoric acid and then harvested onto P81 Unifilter plates with a wash buffer of 50 mM orthophosphoric acid.
as §1

[13] = target: T2, TBK1 (Homo sapiens, UniProt Q9UHD2); assay: Kinase profiling TBK1; settings: for residual kinase activity, TBK1: 100 micromolar inhibitor concentration, 100 is no change
T2 sequence (Q9UHD2 1-729): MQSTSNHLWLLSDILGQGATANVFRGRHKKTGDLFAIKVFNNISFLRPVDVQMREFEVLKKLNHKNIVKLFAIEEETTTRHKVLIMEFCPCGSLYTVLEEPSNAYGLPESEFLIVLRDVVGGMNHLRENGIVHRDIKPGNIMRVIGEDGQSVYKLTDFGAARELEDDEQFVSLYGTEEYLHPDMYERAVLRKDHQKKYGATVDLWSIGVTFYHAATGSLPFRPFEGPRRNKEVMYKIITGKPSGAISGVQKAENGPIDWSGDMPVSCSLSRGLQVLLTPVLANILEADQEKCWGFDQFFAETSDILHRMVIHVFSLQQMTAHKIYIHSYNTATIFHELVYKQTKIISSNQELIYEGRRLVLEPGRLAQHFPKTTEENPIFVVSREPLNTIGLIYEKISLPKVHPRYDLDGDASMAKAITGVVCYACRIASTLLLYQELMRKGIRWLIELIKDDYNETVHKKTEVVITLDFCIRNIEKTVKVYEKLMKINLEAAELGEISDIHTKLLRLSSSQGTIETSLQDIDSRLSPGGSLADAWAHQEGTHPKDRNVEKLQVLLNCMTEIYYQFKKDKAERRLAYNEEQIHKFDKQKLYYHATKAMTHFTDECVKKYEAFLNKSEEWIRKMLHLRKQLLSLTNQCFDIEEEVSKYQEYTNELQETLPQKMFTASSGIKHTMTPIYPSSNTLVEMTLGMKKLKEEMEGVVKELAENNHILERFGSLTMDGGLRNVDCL
Excerpt: as §1

[14] = target: PIM1 (Homo sapiens, UniProt P11309); assay: Kinase profiling PIM1; settings: for residual kinase activity, PIM1: 100 micromolar inhibitor concentration, 100 is no change
Excerpt: as §1

[15] = target: EF2K (Homo sapiens, UniProt O00418); assay: Kinase profiling EF2K; settings: for residual kinase activity, EF2K: 100 micromolar inhibitor concentration, 100 is no change
Excerpt: as §1

[16] = target: PAK4 (Homo sapiens, UniProt O96013); assay: Kinase profiling PAK4; settings: for residual kinase activity, PAK4: 100 micromolar inhibitor concentration, 100 is no change
PAK4, sequence (O96013 whole entry, species assumed): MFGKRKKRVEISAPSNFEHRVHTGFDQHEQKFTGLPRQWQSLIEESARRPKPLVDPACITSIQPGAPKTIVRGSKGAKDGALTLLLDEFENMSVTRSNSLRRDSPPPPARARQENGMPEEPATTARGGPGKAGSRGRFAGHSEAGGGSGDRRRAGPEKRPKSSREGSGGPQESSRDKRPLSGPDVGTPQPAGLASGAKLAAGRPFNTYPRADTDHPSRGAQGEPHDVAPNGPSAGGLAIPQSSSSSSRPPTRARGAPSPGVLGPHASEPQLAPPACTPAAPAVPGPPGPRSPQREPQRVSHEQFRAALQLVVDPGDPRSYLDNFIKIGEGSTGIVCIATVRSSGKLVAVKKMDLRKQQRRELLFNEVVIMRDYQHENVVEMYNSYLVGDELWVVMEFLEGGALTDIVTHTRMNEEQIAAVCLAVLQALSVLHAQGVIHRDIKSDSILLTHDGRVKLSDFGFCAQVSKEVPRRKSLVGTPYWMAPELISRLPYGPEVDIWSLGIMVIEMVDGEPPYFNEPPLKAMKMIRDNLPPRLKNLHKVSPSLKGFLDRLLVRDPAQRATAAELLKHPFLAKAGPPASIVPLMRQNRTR
Excerpt: as §1

[17] = target: RIPK2 (Homo sapiens, UniProt O43353); assay: Kinase profiling RIPK2; settings: for residual kinase activity, RIPK2: 100 micromolar inhibitor concentration, 100 is no change
RIPK2, sequence (O43353 whole entry, species assumed): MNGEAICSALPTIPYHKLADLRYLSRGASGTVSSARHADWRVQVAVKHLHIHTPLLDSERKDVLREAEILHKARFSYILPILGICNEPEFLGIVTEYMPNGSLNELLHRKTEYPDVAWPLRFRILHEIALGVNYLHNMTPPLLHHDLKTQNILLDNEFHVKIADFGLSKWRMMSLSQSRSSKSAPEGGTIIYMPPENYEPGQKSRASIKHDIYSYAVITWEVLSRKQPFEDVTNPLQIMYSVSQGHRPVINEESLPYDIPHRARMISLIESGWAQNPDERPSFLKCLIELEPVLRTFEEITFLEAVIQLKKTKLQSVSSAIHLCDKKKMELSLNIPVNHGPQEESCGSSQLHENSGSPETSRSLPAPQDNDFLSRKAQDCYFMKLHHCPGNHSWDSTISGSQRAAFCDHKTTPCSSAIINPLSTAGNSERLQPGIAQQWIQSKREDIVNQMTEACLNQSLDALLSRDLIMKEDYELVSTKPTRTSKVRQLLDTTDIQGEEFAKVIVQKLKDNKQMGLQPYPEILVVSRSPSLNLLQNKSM
Excerpt: as §1

[18] = target: Lck (Homo sapiens, UniProt P06239); assay: Kinase profiling Lck; settings: for residual kinase activity, Lck: 100 micromolar inhibitor concentration, 100 is no change
Lck, sequence (P06239 whole entry, species assumed): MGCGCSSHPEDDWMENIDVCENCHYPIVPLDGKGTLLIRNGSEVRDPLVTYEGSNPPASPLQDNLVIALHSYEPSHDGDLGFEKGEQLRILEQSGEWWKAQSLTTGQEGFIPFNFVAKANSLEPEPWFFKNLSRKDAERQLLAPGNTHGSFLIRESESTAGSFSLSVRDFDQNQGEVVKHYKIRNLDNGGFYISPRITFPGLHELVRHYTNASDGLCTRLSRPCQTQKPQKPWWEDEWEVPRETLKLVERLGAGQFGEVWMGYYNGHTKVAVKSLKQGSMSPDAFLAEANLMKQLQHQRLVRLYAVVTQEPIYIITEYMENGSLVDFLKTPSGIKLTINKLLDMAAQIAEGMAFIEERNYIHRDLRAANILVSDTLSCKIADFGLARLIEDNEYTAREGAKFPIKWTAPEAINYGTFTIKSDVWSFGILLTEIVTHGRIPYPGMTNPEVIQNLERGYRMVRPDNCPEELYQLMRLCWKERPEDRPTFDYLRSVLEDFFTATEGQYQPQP
Excerpt: as §1

[19] = target: BTK (Homo sapiens, UniProt Q06187); assay: Kinase profiling BTK; settings: for residual kinase activity, BTK: 100 micromolar inhibitor concentration, 100 is no change
BTK, sequence (Q06187 whole entry, species assumed): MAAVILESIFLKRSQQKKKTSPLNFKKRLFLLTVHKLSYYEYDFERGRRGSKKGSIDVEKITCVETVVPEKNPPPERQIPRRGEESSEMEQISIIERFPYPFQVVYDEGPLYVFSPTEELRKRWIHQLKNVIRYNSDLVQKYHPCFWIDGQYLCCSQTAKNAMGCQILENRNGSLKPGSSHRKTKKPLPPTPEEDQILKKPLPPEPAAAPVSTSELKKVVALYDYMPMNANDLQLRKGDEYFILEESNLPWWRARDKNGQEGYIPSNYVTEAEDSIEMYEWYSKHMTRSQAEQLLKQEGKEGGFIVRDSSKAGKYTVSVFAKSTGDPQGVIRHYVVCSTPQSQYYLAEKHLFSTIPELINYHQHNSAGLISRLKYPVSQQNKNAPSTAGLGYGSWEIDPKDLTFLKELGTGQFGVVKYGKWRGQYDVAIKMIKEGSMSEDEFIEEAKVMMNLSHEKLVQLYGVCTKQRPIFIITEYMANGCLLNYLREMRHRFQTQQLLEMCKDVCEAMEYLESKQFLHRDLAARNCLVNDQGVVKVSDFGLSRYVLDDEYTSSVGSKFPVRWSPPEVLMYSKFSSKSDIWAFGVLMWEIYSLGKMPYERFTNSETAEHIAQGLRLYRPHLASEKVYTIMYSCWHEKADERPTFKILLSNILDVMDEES
Excerpt: as §1

[20] = target: JAK2 (Homo sapiens, UniProt O60674); assay: Kinase profiling JAK2; settings: for residual kinase activity, JAK2: 100 micromolar inhibitor concentration, 100 is no change
Excerpt: as §1

[21] = target: SYK (Homo sapiens, UniProt P43405); assay: Kinase profiling SYK; settings: for residual kinase activity, SYK: 100 micromolar inhibitor concentration, 100 is no change
Excerpt: as §1

[22] = target: EPH-A2 (Homo sapiens, UniProt P29317); assay: Kinase profiling EPH-A2; settings: for residual kinase activity, EPH-A2: 100 micromolar inhibitor concentration, 100 is no change
EPH-A2, sequence (P29317 24-976, species assumed): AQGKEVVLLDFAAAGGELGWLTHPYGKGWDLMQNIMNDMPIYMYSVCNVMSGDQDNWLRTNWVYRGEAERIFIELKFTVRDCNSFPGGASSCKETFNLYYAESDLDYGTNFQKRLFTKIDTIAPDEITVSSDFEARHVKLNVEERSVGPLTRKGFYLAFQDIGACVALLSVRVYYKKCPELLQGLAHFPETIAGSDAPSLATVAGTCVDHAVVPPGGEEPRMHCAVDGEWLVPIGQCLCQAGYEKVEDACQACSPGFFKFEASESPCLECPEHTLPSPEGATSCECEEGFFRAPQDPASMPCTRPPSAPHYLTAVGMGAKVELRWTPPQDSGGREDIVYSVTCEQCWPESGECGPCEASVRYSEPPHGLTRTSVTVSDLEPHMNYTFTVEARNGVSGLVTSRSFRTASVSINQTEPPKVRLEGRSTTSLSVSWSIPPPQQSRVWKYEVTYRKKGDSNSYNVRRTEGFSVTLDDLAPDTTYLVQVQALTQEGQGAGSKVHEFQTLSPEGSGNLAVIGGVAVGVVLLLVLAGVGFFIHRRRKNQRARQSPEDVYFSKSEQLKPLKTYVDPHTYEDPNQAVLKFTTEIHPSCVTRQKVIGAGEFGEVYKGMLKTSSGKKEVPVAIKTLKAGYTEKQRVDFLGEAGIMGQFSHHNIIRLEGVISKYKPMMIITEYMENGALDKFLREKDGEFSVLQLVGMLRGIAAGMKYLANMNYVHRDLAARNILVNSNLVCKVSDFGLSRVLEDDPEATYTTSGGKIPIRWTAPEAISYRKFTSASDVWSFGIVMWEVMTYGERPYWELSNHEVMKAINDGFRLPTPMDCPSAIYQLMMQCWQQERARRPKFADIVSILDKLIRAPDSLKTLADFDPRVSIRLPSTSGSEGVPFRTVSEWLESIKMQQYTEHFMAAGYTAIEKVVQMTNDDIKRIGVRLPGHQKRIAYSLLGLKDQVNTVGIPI
Excerpt: as §1

O=C(Nc1nc2cc(O)ccc2s1)c1ccccc1 [Compound 03-102]
residual kinase activity, MKK1 [1]: 52
residual kinase activity, p38a MAPK [2]: 57
residual kinase activity, PDK1 [3]: 74
residual kinase activity, PKBa [4]: 88
residual kinase activity, PKA [5]: 93
residual kinase activity, PKCa [6]: 72
residual kinase activity, MSK1 [7]: 72
residual kinase activity, CAMKKb [8]: 32
residual kinase activity, CHK2 [9]: 26
residual kinase activity, PLK1 [10]: 83
residual kinase activity, MARK3 [11]: 63
residual kinase activity, DYRK1A [12]: 6
residual kinase activity, TBK1 [13]: 66
residual kinase activity, PIM1 [14]: 14
residual kinase activity, EF2K [15]: 92
residual kinase activity, PAK4 [16]: 67
residual kinase activity, RIPK2 [17]: 24
residual kinase activity, Lck [18]: 98
residual kinase activity, BTK [19]: 81
residual kinase activity, JAK2 [20]: 47
residual kinase activity, SYK [21]: 80
residual kinase activity, EPH-A2 [22]: 65

COC(=O)c1cccc(C(=O)Nc2nc3ccc(C(F)(F)F)cc3s2)c1 [Compound 03-105, Methyl 3-((6-(trifluoromethyl)benzo[d]thiazol-2-yl)carbamoyl)benzoate]
remaining activity at 100 µM ([1]; read-out: residual kinase activity, MKK1): 86%
remaining activity at 100 µM ([2]; read-out: residual kinase activity, p38a MAPK): 84%
remaining activity at 100 µM ([3]; read-out: residual kinase activity, PDK1): 87%
remaining activity at 100 µM ([4]; read-out: residual kinase activity, PKBa): 92%
remaining activity at 100 µM ([5]; read-out: residual kinase activity, PKA): 96%
remaining activity at 100 µM ([6]; read-out: residual kinase activity, PKCa): 96%
remaining activity at 100 µM ([7]; read-out: residual kinase activity, MSK1): 84%
remaining activity at 100 µM ([8]; read-out: residual kinase activity, CAMKKb): 48%
remaining activity at 100 µM ([9]; read-out: residual kinase activity, CHK2): 89%
remaining activity at 100 µM ([10]; read-out: residual kinase activity, PLK1): 101%
remaining activity at 100 µM ([11]; read-out: residual kinase activity, MARK3): 103%
remaining activity at 100 µM ([12]; read-out: residual kinase activity, DYRK1A): 2%
remaining activity at 100 µM ([13]; read-out: residual kinase activity, TBK1): 101%
remaining activity at 100 µM ([14]; read-out: residual kinase activity, PIM1): 72%
remaining activity at 100 µM ([15]; read-out: residual kinase activity, EF2K): 108%
remaining activity at 100 µM ([16]; read-out: residual kinase activity, PAK4): 89%
remaining activity at 100 µM ([17]; read-out: residual kinase activity, RIPK2): 79%
remaining activity at 100 µM ([18]; read-out: residual kinase activity, Lck): 99%
remaining activity at 100 µM ([19]; read-out: residual kinase activity, BTK): 95%
remaining activity at 100 µM ([20]; read-out: residual kinase activity, JAK2): 101%
remaining activity at 100 µM ([21]; read-out: residual kinase activity, SYK): 102%
remaining activity at 100 µM ([22]; read-out: residual kinase activity, EPH-A2): 100%

N#Cc1ccc2nc(NC(=O)c3ccccc3)sc2c1 [Compound 03-106]
residual kinase activity, MKK1 [1]: 58
residual kinase activity, p38a MAPK [2]: 60
residual kinase activity, PDK1 [3]: 106
residual kinase activity, PKBa [4]: 67
residual kinase activity, PKA [5]: 91
residual kinase activity, PKCa [6]: 100
residual kinase activity, MSK1 [7]: 64
residual kinase activity, CAMKKb [8]: 67
residual kinase activity, CHK2 [9]: 62
residual kinase activity, PLK1 [10]: 103
residual kinase activity, MARK3 [11]: 98
residual kinase activity, DYRK1A [12]: 3
residual kinase activity, TBK1 [13]: 94
residual kinase activity, PIM1 [14]: 32
residual kinase activity, EF2K [15]: 100
residual kinase activity, PAK4 [16]: 94
residual kinase activity, RIPK2 [17]: 78
residual kinase activity, Lck [18]: 95
residual kinase activity, BTK [19]: 49
residual kinase activity, JAK2 [20]: 87
residual kinase activity, SYK [21]: 93
residual kinase activity, EPH-A2 [22]: 89

COC(=O)c1cccc(C(=O)Nc2nc3cc(OC)ccc3s2)c1 [Compound 03-108]
residual kinase activity, MKK1 [1]: 94
residual kinase activity, p38a MAPK [2]: 94
residual kinase activity, PDK1 [3]: 101
residual kinase activity, PKBa [4]: 106
residual kinase activity, PKA [5]: 92
residual kinase activity, PKCa [6]: 85
residual kinase activity, MSK1 [7]: 88
residual kinase activity, CAMKKb [8]: 80
residual kinase activity, CHK2 [9]: 65
residual kinase activity, PLK1 [10]: 96
residual kinase activity, MARK3 [11]: 100
residual kinase activity, DYRK1A [12]: 51
residual kinase activity, TBK1 [13]: 102
residual kinase activity, PIM1 [14]: 95
residual kinase activity, EF2K [15]: 91
residual kinase activity, PAK4 [16]: 100
residual kinase activity, RIPK2 [17]: 39
residual kinase activity, Lck [18]: 100
residual kinase activity, BTK [19]: 68
residual kinase activity, JAK2 [20]: 85
residual kinase activity, SYK [21]: 96
residual kinase activity, EPH-A2 [22]: 76
